Experiments:
[1] = in vitro stability in 10% rat plasma, LC-MS/MS; format: in vitro ADME; conditions: room temperature, 100 ng/ml; for % Remaining: 0 h
Experimental: (§1) Consequently, the stability of select, non-PEGylated analogs was evaluated in vitro in the presence of 10% rat or human plasma. Briefly, samples of each peptide were diluted to 100 ng/ml into PBS containing 10% of rat or human plasma. Each sample was then incubated at room temperature and analyzed by LC-MS/MS to quantitate the intact peptide remaining at select time points over 6 hours.

[2] = in vitro stability in 10% human plasma, LC-MS/MS; format: in vitro ADME; conditions: room temperature, 100 ng/ml; for % Remaining: 0 h
Experimental: as §1

CGRP1 receptor = biological target: T1, CGRP1 receptor (Homo sapiens, UniProt O60894+Q16602); experiment: in vitro CGRP1 receptor mediated cAMP assay in SK-N-MC cells; format: cell-based
T1 construct: SK-N-MC cells express CRLR and RAMP1, which form CGRP1 receptor; endogenous in cells; host or cells: SK-N-MC human neuroblastoma cells
T1 sequence (Q16602 23-461): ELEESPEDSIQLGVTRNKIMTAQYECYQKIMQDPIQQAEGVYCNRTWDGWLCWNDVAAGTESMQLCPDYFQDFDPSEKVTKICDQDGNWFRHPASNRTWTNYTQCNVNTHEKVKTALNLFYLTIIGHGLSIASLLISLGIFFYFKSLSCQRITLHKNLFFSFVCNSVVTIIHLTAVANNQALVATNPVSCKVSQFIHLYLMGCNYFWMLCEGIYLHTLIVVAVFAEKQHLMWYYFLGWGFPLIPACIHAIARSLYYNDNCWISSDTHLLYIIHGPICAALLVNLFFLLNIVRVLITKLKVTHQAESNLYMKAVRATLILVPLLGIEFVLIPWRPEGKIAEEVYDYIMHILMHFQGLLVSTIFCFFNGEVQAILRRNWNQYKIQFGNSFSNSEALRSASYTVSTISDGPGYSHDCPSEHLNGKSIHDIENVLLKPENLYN
T1 sequence (O60894 27-148): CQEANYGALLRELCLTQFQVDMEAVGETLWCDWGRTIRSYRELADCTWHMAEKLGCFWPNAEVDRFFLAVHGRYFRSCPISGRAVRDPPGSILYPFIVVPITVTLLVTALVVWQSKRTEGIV
Procedure, shortened: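 Human SK-N-MC neuroblastoma cells, which endogenously express CRLR/RAMP1, were plated two days before assay and preincubated in plasma-free medium for 15 minutes at room temperature. Cells were then lysed for 30 minutes at 37° C, and cAMP in the lysates was quantified by competitive cAMP-AP chemiluminescent ELISA.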

[3] = rat pharmacokinetic studies; conditions: 2 mg/kg
Experimental: Rat pharmacokinetic studies. […] There were three rats per group (n=3), each weighing 250-325 g. Each group received either a 2 mg/kg intravenous or subcutaneous discrete administration. The approximate dose volume was 0.3 mL per rat. Approximately 0.25 mL of whole blood was taken per time point at the following post-dose collection times for the intravenous groups (in hours): 0.083, 0.25, 0.5, 1, 2, 4, 6, 8, 24, 48, 72, 96 and the following time points for the subcutaneous groups (in hours): 0.25, 0.5, 1, 2, 4, 6, 8, 24, 48, 72, 96. Whole blood samples were collected in microtainer vials containing EDTA as anticoagulant and were kept on wet ice until processed for plasma. The plasma was obtained by centrifuging the whole blood for approximately 5 min at 11,500 rpm. Plasma was transferred to new tubes and stored frozen at approximately −70° C. until quantitative analysis. […] The individual sample concentrations for each time point were averaged (n=3) within a given dose group using Excel 2000 software. The averaged plasma concentration-time data were analyzed by noncompartmental methods using WinNonlin v.3.3 software. Nominal sample times were used in the pharmacokinetic analysis. The area under the concentration-time curve was calculated using the linear/log trapezoidal method to determine exposure.

Compound | % Remaining [1] [%] | remaining at 0.5 h, 100 ng/ml [1] [%] | remaining at 1 h, 100 ng/ml [1] [%] | remaining at 2 h, 100 ng/ml [1] [%] | remaining at 3 h, 100 ng/ml [1] [%] | remaining at 4 h, 100 ng/ml [1] [%] | remaining at 5 h, 100 ng/ml [1] [%] | remaining at 6 h, 100 ng/ml [1] [%] | % Remaining [2] [%] | remaining at 0.17 h, 100 ng/ml [2] [%] | remaining at 0.5 h, 100 ng/ml [2] [%] | remaining at 1 h, 100 ng/ml [2] [%] | remaining at 2 h, 100 ng/ml [2] [%] | remaining at 3 h, 100 ng/ml [2] [%] | remaining at 4 h, 100 ng/ml [2] [%] | remaining at 5 h, 100 ng/ml [2] [%] | remaining at 6 h, 100 ng/ml [2] [%] | also measured
Ac-WVTHRLAGLLSQSGGVVRKNFVPTDVGPFAF-NH2 [SEQ ID NO: 37] | – | – | – | – | – | – | – | – | 100.0 | 59 | 20.6 | 10 | 2.3 | 1.3 | 0.7 | 0.7 | 0 | –
CC(=O)N[C@@H](Cc1c[nH]c2ccccc12)C(=O)N[C@H](C(=O)N[C@H](C(=O)N[C@@H](Cc1cnc[nH]1)C(=O)N[C@@H](CCCCNC(=N)N)C(=O)N[C@@H](CC(C)C)C(=O)N[C@@H](C)C(=O)NCC(=O)N[C@@H](CC(C)C)C(=O)N[C@@H](CC(C)C)C(=O)N[C@@H](CO)C(=O)N[C@@H](CCCCNC(=N)N)C(=O)N[C@@H](CO)C(=O)NCC(=O)NCC(=O)N[C@H](C(=O)N[C@H](C(=O)N[C@@H](CCCNC(=N)N)C(=O)N[C@@H](CCCCN)C(=O)N[C@@H](CC(N)=O)C(=O)N[C@@H](Cc1ccccc1)C(=O)N[C@H](C(=O)N1CCC[C@H]1C(=O)N[C@H](C(=O)N[C@@H](CC(=O)O)C(=O)N[C@H](C(=O)NCC(=O)N1CCC[C@H]1C(=O)N[C@@H](Cc1ccccc1)C(=O)N[C@@H](C)C(=O)N[C@@H](Cc1ccccc1)C(N)=O)C(C)C)[C@@H](C)O)C(C)C)C(C)C)C(C)C)[C@@H](C)O)C(C)C [SEQ ID NO: 25] | – | – | – | – | – | – | – | – | 100.0 | 88.3 | 47.3 | 28.7 | 11 | 5.4 | 3.1 | 3.6 | 2.8 | –
SEQ ID NO:32 (WVTHXLAGLLSXSGGVVRKNFVPTDVGPFAF; CGRP peptide; MOD_RES (1)..(1): …ON; MISC_FEATURE (5)..(5): xaa=citrulline; MISC_FEATURE (12)..(12): xaa=citrulline; MISC_FEATURE (19)..(19): PEGylated; MOD_RES (31)..(31): AMIDATION) | – | – | – | – | – | – | – | – | – | – | – | – | – | – | – | – | – | antagonist activity in cAMP assay, in words (CGRP1 receptor): relatively minor loss of in vitro antagonist activity; mean residence time (MRT) longer compared to SEQ ID NO:15 ([3]; intravenous): 4 times; bioavailablity (F %) ([3]; subcutaneous): 47%; exposure (AUC) increase compared to SEQ ID NO:15 ([3]; subcutaneous): about 15 fold

Second part, led by results:

% Remaining [1] [%] | remaining at 0.5 h, 100 ng/ml [1] [%] | remaining at 1 h, 100 ng/ml [1] [%] | remaining at 2 h, 100 ng/ml [1] [%] | remaining at 3 h, 100 ng/ml [1] [%] | remaining at 4 h, 100 ng/ml [1] [%] | remaining at 5 h, 100 ng/ml [1] [%] | remaining at 6 h, 100 ng/ml [1] [%] | % Remaining [2] [%] | remaining at 0.17 h, 100 ng/ml [2] [%] | remaining at 0.5 h, 100 ng/ml [2] [%] | remaining at 1 h, 100 ng/ml [2] [%] | remaining at 2 h, 100 ng/ml [2] [%] | remaining at 3 h, 100 ng/ml [2] [%] | remaining at 4 h, 100 ng/ml [2] [%] | remaining at 5 h, 100 ng/ml [2] [%] | remaining at 6 h, 100 ng/ml [2] [%] | Compound | also measured
100.0 | 83.8 | 66.2 | 29.9 | 20.4 | 11.8 | 6.4 | 4 | – | – | – | – | – | – | – | – | – | Ac-WVTHQLAGLLSQSGGVVRKNFVPTDVGPFAF-NH2 [compound 39] | –
100.0 | 76.9 | 58.1 | 27.5 | 21.3 | 16.3 | 11 | 7.1 | – | – | – | – | – | – | – | – | – | CC(=O)N[C@@H](Cc1c[nH]c2ccccc12)C(=O)N[C@H](C(=O)N[C@H](C(=O)N[C@@H](Cc1cnc[nH]1)C(=O)N[C@@H](CCCCNC(=N)N)C(=O)N[C@@H](CC(C)C)C(=O)N[C@@H](C)C(=O)NCC(=O)N[C@@H](CC(C)C)C(=O)N[C@@H](CC(C)C)C(=O)N[C@@H](CO)C(=O)N[C@@H](CCCCNC(=N)N)C(=O)N[C@@H](CO)C(=O)NCC(=O)NCC(=O)N[C@H](C(=O)N[C@H](C(=O)N[C@@H](CCCNC(=N)N)C(=O)N[C@@H](CCCCN)C(=O)N[C@@H](CC(N)=O)C(=O)N[C@@H](Cc1ccccc1)C(=O)N[C@H](C(=O)N1CCC[C@H]1C(=O)N[C@H](C(=O)N[C@@H](CC(=O)O)C(=O)N[C@H](C(=O)NCC(=O)N1CCC[C@H]1C(=O)N[C@@H](Cc1ccccc1)C(=O)N[C@@H](C)C(=O)N[C@@H](Cc1ccccc1)C(N)=O)C(C)C)[C@@H](C)O)C(C)C)C(C)C)C(C)C)[C@@H](C)O)C(C)C [compound 25] | –
– | – | – | – | – | – | – | – | 100.0 | 74.2 | 54 | 50.2 | 36.7 | 15.8 | 11.3 | 6.3 | 5.2 | Ac-WVTHQLAGLLSQSGGVVRKNFVPTDVGPFAF-NH2 [SEQ ID NO: 39] | –
